The record followed here is publication PMC10885137, “Site-Directed Mutagenesis of VvCYP76F14 (Cytochrome P450) Unveils Its Potential for Selection in Wine Grape Varieties Linked to the Development of Wine Bouquet” (Journal of Agricultural and Food Chemistry, 2024).

Details in all cases: 1 mM NADPH, ATR1 reductase, 100 mM Na/K phosphate pH 5.0, 26 °C, 1 h
In test [1] the target is VvCYP76F14 (from "L35", full-bodied) (Vitis vinifera, UniProt A0A1B2ZBX8, D306A, form not given). From the text:
(§1) UPLC-MS/MS substrate depletion kinetics on VvCYP76F14 (from "L35", full-bodied)

For test [2], the target named is VvCYP76F14 (from "L35", full-bodied) (Vitis vinifera, UniProt A0A1B2ZBX8, S485A, form not given).
Source text: as §1

The target of test [3] is VvCYP76F14 (from "L35", full-bodied) (Vitis vinifera, UniProt A0A1B2ZBX8).
Source text: as §1

In test [4] the target is VvCYP76F14 (from "L35", full-bodied) (Vitis vinifera, UniProt A0A1B2ZBX8, F435A, form not given).
Source text: as §1

The target in test [5] is VvCYP76F14 (from "L35", full-bodied) (Vitis vinifera, UniProt A0A1B2ZBX8, L298V, form not given).
Source text: as §1

In test [6] the target is VvCYP76F14 (from "L35", full-bodied) (Vitis vinifera, UniProt A0A1B2ZBX8, I120L, form not given).
Source text: as §1

Test [7] concerns the target VvCYP76F14 (from "L35", full-bodied) (Vitis vinifera, UniProt A0A1B2ZBX8, G304A, form not given).
Source text: as §1

Test [8] addresses VvCYP76F14 (from "L35", full-bodied) (Vitis vinifera, UniProt A0A1B2ZBX8, T188A, form not given).
Source text: as §1

Chain of VvCYP76F14 (from "L35", full-bodied) (Vitis vinifera, UniProt A0A1B2ZBX8, D306A, form not given) (A0A1B2ZBX8 entry or part of it D306A, form open): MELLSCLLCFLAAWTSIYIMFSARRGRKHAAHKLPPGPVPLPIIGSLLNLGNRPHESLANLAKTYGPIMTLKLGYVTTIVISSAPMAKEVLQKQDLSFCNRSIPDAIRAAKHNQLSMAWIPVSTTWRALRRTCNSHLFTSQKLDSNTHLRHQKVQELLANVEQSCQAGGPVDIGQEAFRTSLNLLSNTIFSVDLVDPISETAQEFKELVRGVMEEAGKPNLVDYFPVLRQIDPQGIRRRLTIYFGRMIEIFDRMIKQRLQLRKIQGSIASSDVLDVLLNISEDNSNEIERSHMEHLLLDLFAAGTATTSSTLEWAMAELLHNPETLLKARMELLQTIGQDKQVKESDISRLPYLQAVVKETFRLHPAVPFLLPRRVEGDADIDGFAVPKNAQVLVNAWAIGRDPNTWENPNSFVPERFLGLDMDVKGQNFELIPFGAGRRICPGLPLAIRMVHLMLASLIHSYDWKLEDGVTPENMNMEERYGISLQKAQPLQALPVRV
Chain of VvCYP76F14 (from "L35", full-bodied) (Vitis vinifera, UniProt A0A1B2ZBX8, G304A, form not given) (A0A1B2ZBX8 entry or part of it G304A, form open): as the sequence (A0A1B2ZBX8 entry or part of it D306A, form open) above, with G304A, A306D counted along it
Chain of VvCYP76F14 (from "L35", full-bodied) (Vitis vinifera, UniProt A0A1B2ZBX8, T188A, form not given) (A0A1B2ZBX8 entry or part of it T188A, form open): as the sequence (A0A1B2ZBX8 entry or part of it D306A, form open) above, with T188A, A306D counted along it
Chain of VvCYP76F14 (from "L35", full-bodied) (Vitis vinifera, UniProt A0A1B2ZBX8, F435A, form not given) (A0A1B2ZBX8 entry or part of it F435A, form open): as the sequence (A0A1B2ZBX8 entry or part of it D306A, form open) above, with A306D, F435A counted along it
Chain of VvCYP76F14 (from "L35", full-bodied) (Vitis vinifera, UniProt A0A1B2ZBX8, L298V, form not given) (A0A1B2ZBX8 entry or part of it L298V, form open): as the sequence (A0A1B2ZBX8 entry or part of it D306A, form open) above, with L298V, A306D counted along it
Chain of VvCYP76F14 (from "L35", full-bodied) (Vitis vinifera, UniProt A0A1B2ZBX8, S485A, form not given) (A0A1B2ZBX8 entry or part of it S485A, form open): as the sequence (A0A1B2ZBX8 entry or part of it D306A, form open) above, with A306D, S485A counted along it
Chain of VvCYP76F14 (from "L35", full-bodied) (Vitis vinifera, UniProt A0A1B2ZBX8, I120L, form not given) (A0A1B2ZBX8 entry or part of it I120L, form open): as the sequence (A0A1B2ZBX8 entry or part of it D306A, form open) above, with I120L, A306D counted along it
Chain of VvCYP76F14 (from "L35", full-bodied) (Vitis vinifera, UniProt A0A1B2ZBX8) (A0A1B2ZBX8 entry or part of it): as the sequence (A0A1B2ZBX8 entry or part of it D306A, form open) above, with A306D counted along it

Regarding `C=CC(C)(O)CC/C=C(\C)C=O` (centres unmarked) [(E)-8-oxolinalool], the figures for the Michaelis-Menten constant (Km) in test [1], in test [2] and in test [3] were 269 ± 17.7 µM, 172 ± 9.99 µM and 41.4 ± 4.93 µM, respectively.

For `C=CC(C)(O)CCC=C(C)C` (centres unmarked) [linalool], the figures for the Km in test [4], in test [5] and in test [6] were 288 ± 19.3 µM, 74.7 ± 7.89 µM and 156 ± 12.8 µM, respectively.

In the case of `C=CC(C)(O)CC/C=C(\C)CO` (centres unmarked) [(E)-8-hydroxylinalool], the results for the Michaelis-Menten constant (Km) in test [7] and in test [8] were 170 ± 13.6 µM and 77.4 ± 8.56 µM, respectively.

A word on the Km: it is the substrate concentration at which the rate is half of its maximum.
